Laboratory results as given in patent publication US5395611A, “Phenolic amine depigmenting and antimelanoma agents” (The Governors of the University of Alberta, priority 1992, dated 1995).
“Also recorded” adds a separate entry of the source.

Assays:
[1] = Urinary excretion after i.p. injection (metabolic assay); assay type: in vivo, mice; conditions: 5.2 mg/mouse
Method: Fifteen mice randomly divided into three groups of five were injected i.p. with a test agent (300 mg/kg) dissolved in N saline solution. Group 1 were injected with 4-S-CAP, group 2 with N-Ac-4-S-CAP, group 3 were controls. The mice are kept in metabolic cages; their urine is collected 3, 8 and 24 hr after injection, and the 4-S-CAP and N-Ac-4-S-CAP content is measured by HPLC in a system consisting of a Waters 600E liquid chromatography, with a Bondapak C18 column (3.0×300 mm; particle size, 10 μm) and a Waters 460 electrochemical detector. Mobile phase: 0.1M potassium phosphate buffer, pH 2.1, containing 0.1 mM Na2 EDTA methanol, 80:20 (v/v); column temperature, 60° C.; flow rate 1.0 ml/min. Urine samples are hydrolysed with 0.1M HCl before assay, and the phenols are detected at 850 mV against an Ag/AgCl reference electrode.

follicular melanocytes = conditions: in words; cited from earlier work
[2] = tested on: plasma monoamine oxidase (MAO); conditions: in words, prior knowledge; cited from earlier work

Question: With `NCCSc1ccc(O)cc1` [4-S-CAP, 4-S-cysteaminylphenol, reference compound] as the compound, how does the “Urinary excretion of unchanged compound, amount” value ([1]; 3 h after i.p. injection) read?
Answer: The value was 0.399 ± 0.018 mg.

Question: What about the “Urinary excretion of unchanged compound, amount” value ([1]; 8 h after i.p. injection) of the same compound?
Answer: Its value is 0.443 ± 0.023 mg.

Question: And the “Urinary excretion of unchanged compound, amount” value ([1]; 24 h after i.p. injection)?
Answer: Its value is 0.458 ± 0.021 mg.

Question: What about the dose excreted at 3 h ([1]; urine, ip, 300 mg/kg, 3 h after i.p. injection, read-out: Urinary excretion of unchanged compound, % of dose) of the same compound?
Answer: Its dose excreted at 3 h is 7.7%.

Question: What about the dose excreted at 8 h ([1]; urine, ip, 300 mg/kg, 8 h after i.p. injection, read-out: Urinary excretion of unchanged compound, % of dose) of the same compound?
Answer: Its dose excreted at 8 h is 8.5%.

Question: What about the dose excreted at 24 h ([1]; urine, ip, 300 mg/kg, 24 h after i.p. injection, read-out: Urinary excretion of unchanged compound, % of dose) of the same compound?
Answer: Its dose excreted at 24 h is 8.8%.

Question: What about the “Effect on albino follicles” value (follicular melanocytes) of the same compound?
Answer: The value was “no effect on the albino follicles”.

Question: And the “Effect on black hair follicles / black hair” value (follicular melanocytes)?
Answer: Its value is “demonstrated cytotoxicity in the depigmentation of black hair follicles; also recorded: depigmentation of black hair as manifested by loss of functioning melanocytes”.

Question: What about the “Substrate for plasma MAO (converted into aldehyde form)” value [2] of the same compound?
Answer: Its value is “substrate for monoamineoxidase (MAO); also recorded: substrate not only for tyrosinase, but also for plasma monoamineoxidase (MAO)”.
